Values quoted from earlier work as cited in patent US20050013858A1, “Oral pharmaceutical compositions containing terbinafine” (priority 2001, published 2005).

How the values were obtained:
CYP2D6 = CYP2D6 (Homo sapiens, UniProt P10635)
[1] = steady state, in comparison to the single dose

Chain of CYP2D6 (P10635 whole entry): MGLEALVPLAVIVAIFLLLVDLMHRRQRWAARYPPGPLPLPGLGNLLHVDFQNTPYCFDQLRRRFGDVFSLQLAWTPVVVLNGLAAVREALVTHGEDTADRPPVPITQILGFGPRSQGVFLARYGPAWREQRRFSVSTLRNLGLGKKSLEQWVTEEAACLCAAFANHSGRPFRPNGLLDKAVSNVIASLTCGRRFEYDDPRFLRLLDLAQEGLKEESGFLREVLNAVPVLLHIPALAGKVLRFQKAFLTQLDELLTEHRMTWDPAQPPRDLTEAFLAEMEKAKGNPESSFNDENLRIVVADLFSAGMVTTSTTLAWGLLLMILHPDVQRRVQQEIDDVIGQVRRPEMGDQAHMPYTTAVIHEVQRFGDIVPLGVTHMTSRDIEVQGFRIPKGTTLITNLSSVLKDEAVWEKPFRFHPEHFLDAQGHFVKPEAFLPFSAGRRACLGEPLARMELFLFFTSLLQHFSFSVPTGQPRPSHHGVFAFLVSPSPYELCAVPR

- inhibition of CYP2D6 (CYP2D6): potent inhibitor
- increase in AUC (administered with a fat-rich meal): 42%
- effective half-life (in vivo): ca. 36 hours
- reduction of clearance (patients with renal impairment (creatinine clearance ≤50 ml/min) or hepatic cirrhosis): approximately 50%
- area under the curve over 24 hours (AUC) (single 250 mg terbinafine dose): about 4.76 microgram.hour/millilitre
- factor of AUC increase in steady state versus single dose [1]: 2.5
- increase of Cmax in steady state versus single dose [1]: 25%
SMILES: CN(C/C=C/C#CC(C)(C)C)Cc1cccc2ccccc12 [terbinafine]
